Values of other authors in article PMC9405123, “Design, Synthesis and Mechanistic Studies of Novel Isatin-Pyrazole Hydrazone Conjugates as Selective and Potent Bacterial MetAP Inhibitors” (Antibiotics, 2022).
Values after ≈ are worked out from the molar mass of the structure shown.

Test system: Staphylococcus aureus
Conditions: cited from earlier work

| Compound | MIC |
| --- | --- |
| O=C1Nc2ccc(Cl)cc2/C1=N/NC(=O)c1ccc(N2C(=O)/C(=C\c3ccccc3)N=C2c2ccccc2)cc1 [B] | 12 µg/mL (≈ 22 µM) |
| COc1ccc([C@]2(C)[C@@H](Cl)C(=O)N2NC(=O)c2cc(-c3ccc(Cl)cc3)n[nH]2)cc1 [C] | 0.0025 µg/mL (≈ 0.00561 µM) |
| Cn1nc(C(=O)NC(=O)Nc2ccccc2)c(C(=O)c2ccccc2)c1-c1ccccc1 [D] | 310 µg/mL (≈ 730 µM) |
